Reference: ChEMBL document CHEMBL1125092, “Nonneurotoxic tetralin and indan analogues of 3,4-(methylenedioxy)amphetamine (MDA)” (J Med Chem, 1990)

What was measured:
Rattus norvegicus [1] = species: Rattus norvegicus; test: Bmax for compound was evaluated in rat cortical homogenate; assay type: tissue-based
[2] = target: T1, Sodium-dependent serotonin transporter (Rattus norvegicus, UniProt P31652); test: Binding affinity was determined towards serotonin uptake site in presence of [3H]paroxetine radioligand in rat brain cortical homogenate; assay type: tissue-based
T1 sequence (P31652 whole entry): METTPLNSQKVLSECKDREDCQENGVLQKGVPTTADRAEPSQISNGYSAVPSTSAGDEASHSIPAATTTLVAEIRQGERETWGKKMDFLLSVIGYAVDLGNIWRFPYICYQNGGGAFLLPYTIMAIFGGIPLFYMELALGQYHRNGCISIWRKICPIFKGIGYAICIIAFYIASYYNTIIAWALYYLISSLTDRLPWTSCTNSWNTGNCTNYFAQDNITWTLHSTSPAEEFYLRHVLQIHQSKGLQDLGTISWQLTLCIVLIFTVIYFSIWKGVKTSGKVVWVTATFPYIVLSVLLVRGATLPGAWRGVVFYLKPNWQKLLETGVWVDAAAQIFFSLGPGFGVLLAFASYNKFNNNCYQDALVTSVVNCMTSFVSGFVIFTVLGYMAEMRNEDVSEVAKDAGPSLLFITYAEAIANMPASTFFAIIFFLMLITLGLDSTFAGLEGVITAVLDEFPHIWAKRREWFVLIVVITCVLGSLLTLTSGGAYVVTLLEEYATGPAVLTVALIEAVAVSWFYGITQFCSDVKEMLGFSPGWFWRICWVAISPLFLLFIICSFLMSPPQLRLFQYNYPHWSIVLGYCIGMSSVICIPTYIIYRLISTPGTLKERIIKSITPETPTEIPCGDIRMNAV

[3] = target: T1, Sodium-dependent serotonin transporter; test: Binding affinity was determined towards serotonin uptake site in presence of [3H]paroxetine radioligand in rat hippocampal homogenate; assay type: tissue-based, Hippocampus
Rattus norvegicus [4] = species: Rattus norvegicus; test: Bmax for compound was evaluated in rat hippocampal homogenate; assay type: tissue-based; settings: Hippocampus
Rattus norvegicus [5] = test: Hallucinogenic property was determined in groups of LSD trained rats and percentage of animals disrupted was reported at a dose 0.59(uM/kg), (number of animals = 11); assay type: functional
Rattus norvegicus [6] = test: Percentage of animals disrupted was determined in groups of LSD trained rats at a dose of 1.17(uM/kg)(no. of animals =16); assay type: functional
Rattus norvegicus [7] = test: Percentage of animals disrupted was determined in groups of LSD trained rats at a dose of 2.34(uM/kg) (no. of animals = 10); assay type: functional
Rattus norvegicus [8] = test: Hallucinogenic property was determined in groups of MDMA trained rats and percentage of animals disrupted was reported at a dose 1.17 (umol/kg), (number of animals = 8); assay type: functional
Rattus norvegicus [9] = test: Percentage of animals disrupted was determined in groups of MDMA trained rats at a dose 4.68 (uM/kg), (no.of animals=8); assay type: functional
Rattus norvegicus [10] = test: Percentage of animals disrupted was determined in groups of LSD trained rats at a dose of 4.68(uM/kg) (no. of animals = 15); assay type: functional
Rattus norvegicus [11] = test: Percentage of animals disrupted was determined in groups of LSD trained rats at a dose of 9.36(uM/kg) (no. of animals =6); assay type: functional
Rattus norvegicus [12] = test: Percentage of animals disrupted was determined in groups of MDMA trained rats at a dose 2.34 (uM/kg), (no.of animals=10); assay type: functional
Rattus norvegicus [13] = test: Percentage of animals disrupted was determined in groups of MDMA trained rats at a dose 9.36 (uM/kg), (no.of animals=10); assay type: functional
Rattus norvegicus [14] = test: Monoamine levels in at hippocampus were evaluated after subcutaneous administration of 40 mg/kg for NE; assay type: functional
Rattus norvegicus [15] = test: Monoamine levels in rat brain were evaluated after subcutaneous administration of 40 mg/kg for 5-HIAA; assay type: functional
Rattus norvegicus [16] = test: Monoamine levels in rat brain were evaluated after subcutaneous administration of 40 mg/kg for 5-HT; assay type: functional
Rattus norvegicus [17] = test: Monoamine levels in rat brain were evaluated after subcutaneous administration of 40 mg/kg for DA; assay type: functional
Rattus norvegicus [18] = test: Monoamine levels in rat brain were evaluated after subcutaneous administration of 40 mg/kg for DOPAC; assay type: functional
Rattus norvegicus [19] = test: Monoamine levels in rat brain were evaluated after subcutaneous administration of 40 mg/kg for HVA; assay type: functional
Rattus norvegicus [20] = test: Monoamine levels in rat hippocampus were evaluated after subcutaneous administration of 40 mg/kg for 5-HIAA; assay type: functional
Rattus norvegicus [21] = test: Monoamine levels in rat hippocampus were evaluated after subcutaneous administration of 40 mg/kg for 5-HT; assay type: functional
Rattus norvegicus [22] = test: Tested for stimulus generation in rats trained to discriminate LSD from saline at a dose 0.59(uM/kg), (number of animals = 11); assay type: functional
Rattus norvegicus [23] = test: Tested for stimulus generation in rats trained to discriminate LSD from saline at a dose 1.17 (umol/kg) (number of animals =16); assay type: functional
Rattus norvegicus [24] = test: Tested for stimulus generation in rats trained to discriminate LSD from saline at a dose 2.34 (umol/kg) (number of animals = 10); assay type: functional
Rattus norvegicus [25] = test: Tested for stimulus generation in rats trained to discriminate +/-MDMA from saline at 1.17 (umol/kg), (number of animals = 8); assay type: functional
Rattus norvegicus [26] = test: Tested for stimulus generation in rats trained to discriminate +/-MDMA from saline at 4.68 (umol/kg), (number of animals = 8); assay type: functional
Rattus norvegicus [27] = test: Tested for stimulus generation in rats trained to discriminate +/-MDMA from saline at 9.36 (umol/kg), (number of animals = 10); assay type: functional
Rattus norvegicus [28] = test: Tested for stimulus generation in rats trained to discriminate LSD from saline at a dose 4.68 (umol/kg),(number of animals = 15); assay type: functional
Rattus norvegicus [29] = test: Tested for stimulus generation in rats trained to discriminate +/-MDMA from saline at 2.34 (umol/kg), (number of animals = 10); assay type: functional
Rattus norvegicus [30] = test: Monoamine levels in rat brain were evaluated after subcutaneous administration of 40 mg/kg for NE; assay type: functional

Structure (SMILES): NC1Cc2cc3c(cc2C1)OCO3
- Bmax (Rattus norvegicus [1]): 918 fM/g
- Kd [2]: 0.104 nM
- Kd [3]: 0.127 nM
- Bmax (Rattus norvegicus [4]): 675 fM/g
- D (Rattus norvegicus [5]): 27%
- D (Rattus norvegicus [6]): 50%
- D (Rattus norvegicus [7]): 20%
- D (Rattus norvegicus [8]): 0%
- D (Rattus norvegicus [9]): 0%
- D (Rattus norvegicus [10]): 47%
- D (Rattus norvegicus [11]): 91%
- D (Rattus norvegicus [12]): 20%
- D (Rattus norvegicus [13]): 10%
- Monoamine level (Rattus norvegicus [14]): 459 pg/mg
- Monoamine level (Rattus norvegicus [15]): 329 pg/mg
- Monoamine level (Rattus norvegicus [16]): 330 pg/mg
- Monoamine level (Rattus norvegicus [17]): 130 pg/mg
- Monoamine level (Rattus norvegicus [18]): 187 pg/mg
- Monoamine level (Rattus norvegicus [19]): 193 pg/mg
- Monoamine level (Rattus norvegicus [20]): 473 pg/mg
- Monoamine level (Rattus norvegicus [21]): 273 pg/mg
- SDL (Rattus norvegicus [22]): 13%
- SDL (Rattus norvegicus [23]): 50%
- SDL (Rattus norvegicus [24]): 38%
- SDL (Rattus norvegicus [25]): 13%
- SDL (Rattus norvegicus [26]): 63%
- SDL (Rattus norvegicus [27]): 100%
- SDL (Rattus norvegicus [28]): 25%
- SDL (Rattus norvegicus [29]): 50%
- Monoamine level (Rattus norvegicus [30]): 395 pg/mg
